Biological target: T1, 11β-hydroxysteroid dehydrogenase type 1 (11β-HSD1) (Mus musculus, UniProt P50172)
T1 construct: gene Hsd11b1; recombinant 11β-HSD1
Test: HTRF cortisol competitive assay with recombinant […]β-HSD1; also […] ex vivo inhibition in mouse liver
Type: biochemical

T1 sequence (P50172 whole entry): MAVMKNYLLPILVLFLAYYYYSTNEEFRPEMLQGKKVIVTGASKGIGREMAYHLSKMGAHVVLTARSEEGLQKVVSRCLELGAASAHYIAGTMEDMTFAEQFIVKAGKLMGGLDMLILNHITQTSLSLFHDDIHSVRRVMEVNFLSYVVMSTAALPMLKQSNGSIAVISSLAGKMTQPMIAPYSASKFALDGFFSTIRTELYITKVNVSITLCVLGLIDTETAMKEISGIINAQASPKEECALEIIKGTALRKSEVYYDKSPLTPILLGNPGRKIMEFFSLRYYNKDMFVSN

IC50: 30 nM
Compound: F[C@H]1C[C@](c2ccc(Cl)cc2)(c2nnc(C3CC3)n2C2CC2)C1 [MK-0916, 3-[1-(4-chlorophenyl)-3-fluorocyclobutyl]-4,5-dicyclopropyl-1,2,4-triazole]
